{"source": "patent US20170268001A1", "about": "“RNAS WITH TUMOR RADIO/CHEMO-SENSITIZING AND IMMUNOMODULATORY PROPERTIES AND METHODS OF THEIR PREPARATION AND APPLICATION” (THE UNIVERSITY OF CHICAGO, priority 2016, published 2017)", "molecular_target": "T1, RIG-I (Homo sapiens, UniProt O95786)", "T1 construct": "HEK293 cells overexpressing either the full length RIG-I; host or cells: HEK293; HCT116 also for the qRT-PCR validation", "T1 sequence (O95786 1-925)": "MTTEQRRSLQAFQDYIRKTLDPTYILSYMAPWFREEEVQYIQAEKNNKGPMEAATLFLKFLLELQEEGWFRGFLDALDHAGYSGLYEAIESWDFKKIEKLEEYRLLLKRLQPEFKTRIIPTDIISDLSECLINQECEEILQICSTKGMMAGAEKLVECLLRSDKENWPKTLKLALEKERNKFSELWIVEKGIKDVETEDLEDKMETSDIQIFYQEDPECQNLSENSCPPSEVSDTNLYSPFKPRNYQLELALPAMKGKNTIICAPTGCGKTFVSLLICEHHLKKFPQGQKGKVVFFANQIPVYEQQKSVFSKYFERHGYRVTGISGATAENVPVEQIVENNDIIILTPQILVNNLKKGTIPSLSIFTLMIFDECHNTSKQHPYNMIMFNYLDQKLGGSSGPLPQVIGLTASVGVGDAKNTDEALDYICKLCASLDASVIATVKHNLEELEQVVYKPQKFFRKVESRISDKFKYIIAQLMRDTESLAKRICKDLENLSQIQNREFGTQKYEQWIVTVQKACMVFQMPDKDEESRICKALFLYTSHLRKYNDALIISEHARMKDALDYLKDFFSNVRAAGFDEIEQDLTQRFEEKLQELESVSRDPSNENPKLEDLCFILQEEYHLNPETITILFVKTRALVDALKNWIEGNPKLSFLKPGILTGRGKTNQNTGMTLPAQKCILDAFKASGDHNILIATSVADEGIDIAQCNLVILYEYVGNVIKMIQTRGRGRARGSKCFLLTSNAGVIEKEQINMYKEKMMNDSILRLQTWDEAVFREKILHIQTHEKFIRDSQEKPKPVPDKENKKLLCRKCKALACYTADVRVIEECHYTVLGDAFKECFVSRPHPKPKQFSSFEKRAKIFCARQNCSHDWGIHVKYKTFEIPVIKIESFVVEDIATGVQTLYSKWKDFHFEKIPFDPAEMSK", "experiment": "RNA sequencing of RNA bound to RIG-I (RIG-I pulldown) after IR", "format": "binding", "experimental": "Technically, identification of RNAs was performed as follows: […] Cambridge, Mass.). Twenty-four hours post-transfection, cells were either mock-irradiated or exposed to IR (6 Gy). […] Cell lysates were separated from cell debris by centrifugation at 12,000 rpm at 4° C. Protein concentration was measured by BCA kit. Anti-FLAG monoclonal antibody was added to the cell lysate at a 1:500 dilution, and incubated overnight at 4° C. Protein G sepharose beads were added to the lysates and incubated for at least 2 hours at 4° C. […] Proteinase K was added to the eluates and incubated at 50° C. for 45 minutes. Trizol reagent was then added to the solution, and RNA bound to RIG-I was purified following manufacturer's protocol. RNA quality was analyzed using an Agilent Bioanalyzer 2100 with Pico Series II cartridges. RNA yield was measured using the Qubit RNA Broad Range kit. For qRT-PCR validation experiments of RIG-I pulled down RNA, UV cross-linking (2 doses at 150 mJ/cm^2) was performed on HEK293 and HCT116 overexpressing RIG-I prior to cell lysis. The same protocol for pulldown and RNA purification experiments was performed as described above. We eluted total RNA and RNA bound to RIG-I from RIG-I over-expressing HEK293 cells 48 hours post IR (6 Gy). […] Libraries were sequenced on Illumina HiSeq2500 instrument to generate 50 bp pair-ended reads. Sequencing files in FastQ format were processed using AlienTrimmer (Criscuolo A and Brisse S, 2013) to remove adapter sequences and to trim low quality reads with Phred quality score <20. The preprocessed reads were aligned to the human reference genome (Ensembl GRCh38) using Spliced Transcripts Alignment to a Reference (STAR) software (Dobin et al., 2013). The featureCounts tool from Bioconductor package RSubread was used to summarize and quantify the abundances of genomic features of the mapped reads (Liao et al., 2013). Mapped reads were annotated using human GENCODE version 20 (Harrow et al., 2012) and were summarized to 35 gene/transcript and non-coding RNA biotypes annotated in GENCODE/Ensemble databases. RepEnrich program (Criscione et al., 2014) was used to identify and quantify the repetitive elements. The program uses Bowtie (Langmead et al., 2009) to align the reads to the human reference genome (Ensembl GRCh38) and human repetitive element pseudogenomes built upon […] annotation library hg38.fa.out.gz (available at […].org on the World Wide Web). The mapped reads were summarized by repetitive element subfamilies, families and classes (Tables 3, 4 and 5). […]", "key": {"[1]": {"settings": "Top 50 RIG-I binding RNAs, RepeatMasker annotations, RIG-I pulldown vs total RNA, HEK293, 48 h post IR (6 Gy)"}}}
{"substance": "U2: snRNA, SEQ ID NO:21", "values": [{"measurement": "log2FC", "setting": "All mapped reads identified using RepeatMasker", "value": 5.983}, {"measurement": "Mean log2FC", "setting": "RepeatMasker annotations, mean of set 1 and set 2", "value": 3.948}, {"measurement": "log2FC (set 1)", "setting": "[1]", "value": 5.983}, {"measurement": "log2FC (set 2)", "setting": "[1]", "value": 1.914}]}
